Data on 17 compounds can be found in patent US10793568B2, “Hormone receptor modulators for treating metabolic conditions and disorders” (ARDELYX, INC., priority 2016, dated 2020).

Assay [1] concerns the target ligand binding domain of human FXR (Homo sapiens (Human), UniProt Q96RI1). In words: FXR ligand binding assay (LanthaScreen TR-FRET, SRC2-2 peptide recruitment). The conditions noted are these: for pEC50: -log EC50, concentration required to produce 50% activation; for Emax: read-out: % Efficacy. For orientation: TR-FRET usually uses a lanthanide donor and a delayed reading to cut background.

Assay [2] has as its target human Farnesoid X receptor ligand-binding domain/Gal4 DNA binding domain chimera (Homo sapiens (Human), UniProt Q96RI1). In words: Cell-based assay of FXR activation (FXR-UAS-bla HEK 293T beta-lactamase reporter). The conditions noted are these: cellular FXR beta-lactamase reporter assay; for Emax: HEK-293T, read-out: % Efficacy. The gist of the method: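 HEK 293T cells stably expressing a Gal4-fused human FXR LBD and a UAS-driven beta-lactamase reporter were incubated with serially diluted compounds for 16 h at 37 °C in phenol red-free DMEM with 2% charcoal-stripped FBS. CCF4 FRET read-out: excitation 409 nm, emission 447 nm. pEC50 comes from a 3-parameter logistic fit, and efficacy is given as % of GW4064.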
A general note: Reporter assays use an easily measured gene product as a stand-in for the process of interest.

[3] abbreviates: extent of activation relative to GW4064.
Where [4] appears, read: FXR-UAS-bla HEK 293T cells, 16 h, pEC50 = -log EC50.

Chain of ligand binding domain of human FXR (Q96RI1 262-486): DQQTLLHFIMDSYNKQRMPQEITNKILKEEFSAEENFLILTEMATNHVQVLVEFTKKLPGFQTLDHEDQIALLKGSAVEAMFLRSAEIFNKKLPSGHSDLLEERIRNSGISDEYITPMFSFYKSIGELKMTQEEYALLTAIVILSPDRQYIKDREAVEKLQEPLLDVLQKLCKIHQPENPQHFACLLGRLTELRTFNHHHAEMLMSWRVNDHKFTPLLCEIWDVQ
Chain of human Farnesoid X receptor ligand-binding domain/Gal4 DNA binding domain chimera (Q96RI1 262-486, change not shown): as the sequence (Q96RI1 262-486) above
Chain of human Farnesoid X receptor ligand-binding domain/Gal4 DNA binding domain chimera (P04386 1-147 partner): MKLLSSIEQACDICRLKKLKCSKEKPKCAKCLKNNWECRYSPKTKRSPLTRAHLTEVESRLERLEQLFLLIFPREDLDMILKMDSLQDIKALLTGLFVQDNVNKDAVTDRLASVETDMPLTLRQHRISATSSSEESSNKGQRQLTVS

A word on the pEC50: it is the negative decadic logarithm of the EC50, by convention in mol/L. A high value points to a low EC50. Broadly, the EC50 is the concentration that produces a half-maximal response. As to `O=C(O)c1ccc(N2C[C@@H]3C[C@H]2C[C@H]3OCc2c(-c3c(Cl)cccc3Cl)noc2C2CC2)c(F)c1F` [Compound I-110, 4-((1S,4S,5R)-5-((5-cyclopropyl-3-(2,6-dichlorophenyl)isoxazol-4-yl)methoxy)-2-azabicyclo[2.2.1]heptan-2-yl)-2,3-difluorobenzoic acid], in assay [1], the pEC50 is 10. In addition, the results for the Emax in assay [1] (setting [3]) and in assay [2] (setting [3]) were 132% and 111%, respectively. Besides, in assay [2] (setting [4]), the EC50 is 1 nM.

`CS(=O)(=O)NC(=O)c1cc(F)c2nc(N3C[C@@H]4C[C@H]3C[C@H]4OCc3c(-c4c(Cl)cccc4Cl)noc3C3CC3)sc2c1` [Compound I-28, 2-[(1S,4S,5R)-5-{[5-cyclopropyl-3-(2,6-dichlorophenyl)-1,2-oxazol-4-yl]methoxy}-2-azabicyclo[2.2.1]heptan-2-yl]-4-fluoro-N-methanesulfonyl-1,3-benzothiazole-6-carboxamide] showed a negative logarithm of the EC50 (pEC50) in assay [1] of 8.9. Besides, the Emax was 153% in assay [1] (setting [3]) and 122% in assay [2] (setting [3]). The concentration for a half-maximal effect (EC50) in assay [2] (setting [4]) was 2 nM.

Compound `O=C(O)c1cc([C@@H]2CCOC2)c2nc(N3C[C@@H]4C[C@H]3C[C@H]4OCc3c(-c4c(Cl)cccc4Cl)noc3C3CC3)sc2c1` [Compound I-252, 2-[(1S,4S,5R)-5-{[5-cyclopropyl-3-(2,6-dichlorophenyl)-1,2-oxazol-4-yl]methoxy}-2-azabicyclo[2.2.1]heptan-2-yl]-4-[(3S)-oxolan-3-yl]-1,3-benzothiazole-6-carboxylic Acid] had a pEC50 in assay [1] of 8.6. Moreover, the Emax came to 135% in assay [1] (setting [3]) and 107% in assay [2] (setting [3]). In addition, the response in assay [2] (setting [4]) was half-maximal at 0.2 nM (EC50).

Turning to `O=C(NS(=O)(=O)C1CCOC1)c1ccc(N2C[C@@H]3C[C@H]2C[C@H]3OCc2c(-c3c(Cl)cccc3Cl)noc2C2CC2)cc1` (stereo partly drawn) [Compound I-185, 4-((1S,4S,5R)-5-((5-cyclopropyl-3-(2,6-dichlorophenyl)isoxazol-4-yl)methoxy)-2-azabicyclo[2.2.1]heptan-2-yl)-N-((tetrahydrofuran-3-yl)sulfonyl)benzamide], in assay [1], the pEC50 was 8.9. Besides, the Emax stood at 155% in assay [1] (setting [3]) and 105% in assay [2] (setting [3]). Also, the EC50 in assay [2] (setting [4]) is 0.1 nM.

With `O=C(O)c1cc([C@H]2C[C@H]3CC[C@@H](C2)O3)c2nc(N3C[C@@H]4C[C@H]3C[C@H]4OCc3c(-c4c(Cl)cccc4Cl)noc3C3CC3)sc2c1` [Compound I-255, 2-[(1S,4S,5R)-5-{[5-cyclopropyl-3-(2,6-dichlorophenyl)-1,2-oxazol-4-yl]methoxy}-2-azabicyclo[2.2.1]heptan-2-yl]-4-[(1R,3R,5S)-8-oxabicyclo[3.2.1]octan-3-yl]-1,3-benzothiazole-6-carboxylic Acid], the negative logarithm of the EC50 (pEC50) in assay [1] is 8.4; in assay [2] (setting [4]) it was 9.3. Moreover, the results for the “% Efficacy” value in assay [1] (setting [3]) and in assay [2] (setting [3]) were 150% and 104%, respectively.

With `O=C(O)c1ccc(N2C[C@@H]3C[C@H]2C[C@H]3OCc2c(-c3c(Cl)cccc3Cl)noc2C2CC2)cc1` [Compound I-52, 4-[(1S,4S,5R)-5-[[5-cyclopropyl-3-(2,6-dichlorophenyl)-1,2-oxazol-4-yl]methoxy]-2-azabicyclo[2.2.1]heptan-2-yl]benzoic acid], the pEC50 in assay [1] was found to be 8.8. For the same compound, the Emax in assay [1] (setting [3]) was 148%; in assay [2] (setting [3]), 111%. A half-maximal effect in assay [2] (setting [4]) (EC50) was put at 1 nM.

In assay [1], `COC(=O)c1cc(F)c2nc(N3C[C@@H]4C[C@H]3C[C@@H]4OCc3c(-c4c(Cl)cccc4Cl)noc3C3CC3)sc2c1` [Compound I-36, Methyl 2-[(1S,4S,5S)-5-{[5-cyclopropyl-3-(2,6-dichlorophenyl)-1,2-oxazol-4-yl]methoxy}-2-azabicyclo[2.2.1]heptan-2-yl]-4-fluoro-1,3-benzothiazole-6-carboxylate] registered a negative-log EC50 (pEC50) of 5.4. In addition, the Emax in assay [1] (setting [3]) stood at 86%; in assay [2] (setting [3]) it was 50%. This compound had an EC50 in assay [2] (setting [4]) of 6310 nM.

In turn, `O=C(O)c1cc(OC2CC2)c2nc(N3C[C@@H]4C[C@H]3C[C@H]4OCc3c(-c4c(F)cccc4Cl)noc3C3CC3)sc2c1` [Compound I-263, 2-((1S,4S,5R)-5-((3-(2-chloro-6-fluorophenyl)-5-cyclopropylisoxazol-4-yl)methoxy)-2-azabicyclo[2.2.1]heptan-2-yl)-4-cyclopropoxybenzo[d]thiazole-6-carboxylic acid] came in with a pEC50 in assay [1] of 8.6. The values for the Emax in assay [1] (setting [3]) and in assay [2] (setting [3]) were 150% and 109%, respectively. This compound gave an EC50 in assay [2] (setting [4]) of 0.1 nM.

Turning to `Cc1cccc(C)c1-c1noc(C2CC2)c1CO[C@@H]1C[C@@H]2C[C@H]1CN2c1nc2c(C)cc(C(=O)O)cc2s1` [Compound I-276, 2-[(1S,4S,5R)-5-{[5-cyclopropyl-3-(2,6-dimethylphenyl)-1,2-oxazol-4-yl]methoxy}-2-azabicyclo[2.2.1]heptan-2-yl]-4-methyl-1,3-benzothiazole-6-carboxylic Acid], in assay [1], the pEC50 turned out to be 8.2. The Emax is 124% in assay [1] (setting [3]) and 114% in assay [2] (setting [3]). The 50% effective concentration (EC50) in assay [2] (setting [4]) was 3.98 nM.

Compound `COC(=O)c1ccc(N2C[C@@H]3C[C@H]2C[C@H]3OCc2c(-c3c(Cl)cccc3Cl)noc2C2CC2)cc1F` [Compound I-177, methyl 4-[(1S,4S,5R)-5-{[5-cyclopropyl-3-(2,6-dichlorophenyl)-1,2-oxazol-4-yl]methoxy}-2-azabicyclo[2.2.1]heptan-2-yl]-2-fluorobenzoate] displayed a negative logarithm of the EC50 (pEC50) in assay [1] of 7.4. Besides, the Emax in assay [1] (setting [3]) was 130%; in assay [2] (setting [3]) it was 109%. This compound also had a concentration giving a half-maximal response (EC50) in assay [2] (setting [4]) of 12.6 nM.

For `CS(=O)(=O)NC(=O)CCc1ccc(N2C[C@@H]3C[C@H]2C[C@H]3OCc2c(-c3c(Cl)cccc3Cl)noc2C2CC2)c(F)c1` [Compound I-236, 3-(4-((1S,4S,5R)-5-((5-cyclopropyl-3-(2,6-dichlorophenyl)isoxazol-4-yl)methoxy)-2-azabicyclo[2.2.1]heptan-2-yl)-3-fluorophenyl)-N-(methylsulfonyl)propanamide], the negative-log EC50 (pEC50) in assay [1] was 8.4. Besides, the Emax in assay [1] (setting [3]) turned out to be 156%; in assay [2] (setting [3]), 95%. Further, in assay [2] (setting [4]), a half-maximal effect (EC50) was put at 2.51 nM.

`O=C(NS(=O)(=O)C1CC1)c1ccc(N2C[C@@H]3C[C@H]2C[C@H]3OCc2c(C3CCC4(CC3)CC4)noc2C2CC2)c(F)c1` [Compound I-229, 4-((1S,4S,5R)-5-((5-cyclopropyl-3-(spiro[2.5]octan-6-yl)isoxazol-4-yl)methoxy)-2-azabicyclo[2.2.1]heptan-2-yl)-N-(cyclopropylsulfonyl)-3-fluorobenzamide]: the pEC50 in assay [1] was determined as 7.4. For the same compound, the Emax in assay [1] (setting [3]) came to 150%; in assay [2] (setting [3]), 101%. The EC50 in assay [2] (setting [4]) is 39.8 nM.

`O=C(O)c1cc(C2CC3(CCOCC3)C2)c2nc(N3C[C@@H]4C[C@H]3C[C@H]4OCc3c(-c4c(Cl)cccc4Cl)noc3C3CC3)sc2c1` [Compound I-257, 2-[(1S,4S,5R)-5-{[5-cyclopropyl-3-(2,6-dichlorophenyl)-1,2-oxazol-4-yl]methoxy}-2-azabicyclo[2.2.1]heptan-2-yl]-4-{7-oxaspiro[3.5]nonan-2-yl}-1,3-benzothiazole-6-carboxylic Acid] had a negative logarithm of the EC50 (pEC50) in assay [1] of 8.6. The Emax is 148% in assay [1] (setting [3]) and 108% in assay [2] (setting [3]). The same compound showed a half-maximal effective concentration (EC50) in assay [2] (setting [4]) of 0.1 nM.

`O=C(O)c1cc(F)c2nc(N3C[C@@H]4C[C@H]3C[C@H]4OCc3c(-c4ccccc4C(F)(F)F)noc3C3CC3)sc2c1` [Compound I-19, 2-[(1S,4S,5R)-5-([5-cyclopropyl-3-[2-(trifluoromethyl)phenyl]-1,2-oxazol-4-yl]methoxy)-2-azabicyclo[2.2.1]heptan-2-yl]-4-fluoro-1,3-benzothiazole-6-carboxylic Acid] registered a pEC50 in assay [1] of 8. Moreover, the values for the Emax in assay [1] (setting [3]) and in assay [2] (setting [3]) were 178% and 114%, respectively. The same compound showed a concentration for a half-maximal effect (EC50) in assay [2] (setting [4]) of 2 nM.

For the compound `O=C(NS(=O)(=O)C1CC1)c1ccc(N2C[C@@H]3C[C@H]2C[C@H]3OC(=O)c2c(-c3c(Cl)cccc3Cl)noc2C2(F)CC2)c(F)c1` [Compound I-199, (1S,4S,5R)-2-(4-((cyclopropylsulfonyl)carbamoyl)-2-fluorophenyl)-2-azabicyclo[2.2.1]heptan-5-yl 3-(2,6-dichlorophenyl)-5-(1-fluorocyclopropyl)isoxazole-4-carboxylate], the pEC50 in assay [1] is listed as 7.4. Further, the Emax was found to be 146% in assay [1] (setting [3]) and 110% in assay [2] (setting [3]). In assay [2] (setting [4]), this compound had an EC50 of 10 nM.

`O=C(NS(=O)(=O)C1CC1)c1ccc(N2C[C@H]3C[C@@H]2C[C@@H]3OCc2c(-c3c(Cl)cccc3Cl)noc2C2CC2)c(F)c1` [Compound I-231, 4-((1R,4R,5S)-5-((5-cyclopropyl-3-(2,6-dichlorophenyl)isoxazol-4-yl)methoxy)-2-azabicyclo[2.2.1]heptan-2-yl)-N-(cyclopropylsulfonyl)-3-fluorobenzamide] returned a negative-log EC50 (pEC50) in assay [1] of 8.4. The Emax was found to be 110% in assay [1] (setting [3]) and 106% in assay [2] (setting [3]). For the same compound, it took 15.8 nM to reach a half-maximal effect in assay [2] (setting [4]) (EC50).

For the compound `CS(=O)(=O)CCNC(=O)c1ccc(N2C[C@@H]3C[C@H]2C[C@H]3OCc2c(-c3c(Cl)cccc3Cl)noc2C2CC2)cc1F` [Compound I-170, 4-[(1S,4S,5R)-5-{[5-cyclopropyl-3-(2,6-dichlorophenyl)-1,2-oxazol-4-yl]methoxy}-2-azabicyclo[2.2.1]heptan-2-yl]-2-fluoro-N-(2-methanesulfonylethyl)benzamide], the negative logarithm of the EC50 (pEC50) in assay [1] is reported as 9.4. Also, the Emax was determined as 142% in assay [1] (setting [3]) and 103% in assay [2] (setting [3]). In assay [2] (setting [4]), this compound had an EC50 of 1.26 nM.
